Data taken from patent US5985909A, “Cyclopropylindoles and their seco precursors, and their use as prodrugs” (Cancer Research Campaign Technology Limited, priority 1995, dated 1999).

Columns and labels:
UV4 cells [1] = test: Growth inhibition (cytotoxicity) in UV4 cells, 18 h drug exposure, methylene blue staining; type: cell-based, Chinese hamster; conditions: Cricetulus griseus, 18 h exposure then 78 h growth (Example 9), read-out: IC50 against UV4 cells
Experimental: The compounds of Examples 1 and 3 show potent cytotoxicity to mammalian tumour cells, and are thus of interest as anticancer drugs. […] For these evaluations, AA8 and UV4 cells were maintained in exponential phase growth (doubling times 14 and 15 h respectively) using Alpha MEM containing fetal calf serum (10% v/v) without antibiotics, and were subcultured twice weekly by trypsinization. Bulk cultures were prepared for experiments by seeding cells in spinner flasks at 10^4 cells/mL in the above medium with addition of penicillin (100 IU/mL) and streptomycin (100 μg/mL). Cultures were initiated in 96-well microtiter trays to give 200 (AA8) or 300 (UV4) cells in 0.05 mL per well. After growth in a CO2 incubator for 24 h, drugs were added in culture medium, using serial two-fold dilutions to provide duplicate cultures at five different concentrations for each of eight drugs (plus eight controls) per tray. After 18 h drugs were removed by washing cultures three times with fresh medium, and the trays were incubated for a further 78 h. Cell density was then determined by staining with methylene blue as described [Finlay, G. J.; Baguley, B. C; Wilson, W. R. Anal. Biochem., 1984, 139, 272-277]. The IC50 was calculated as the drug concentration providing 50% inhibition of growth relative to the controls. […]

UV4 cells [2] = test: Activation of prodrug by E. coli nitroreductase: IC50 in UV4 cells without and with purified enzyme and NADH; type: cell-based, Chinese hamster; conditions: for IC50: 18 hours; for fold activation by the enzyme: ratio of IC50 without to IC50 with E. coli nitroreductase, 1080 min
Experimental: (§1) The compounds of Examples 1 and 3 show potent cytotoxicity to mammalian tumour cells, and are thus of interest as anticancer drugs. […] For these evaluations, AA8 and UV4 cells were maintained in exponential phase growth (doubling times 14 and 15 h respectively) using Alpha MEM containing fetal calf serum (10% v/v) without antibiotics, and were subcultured twice weekly by trypsinization. Bulk cultures were prepared for experiments by seeding cells in spinner flasks at 10^4 cells/mL in the above medium with addition of penicillin (100 IU/mL) and streptomycin (100 μg/mL). Cultures were initiated in 96-well microtiter trays to give 200 (AA8) or 300 (UV4) cells in 0.05 mL per well. After growth in a CO2 incubator for 24 h, drugs were added in culture medium, using serial two-fold dilutions to provide duplicate cultures at five different concentrations for each of eight drugs (plus eight controls) per tray. After 18 h drugs were removed by washing cultures three times with fresh medium, and the trays were incubated for a further 78 h. Cell density was then determined by staining with methylene blue as described [Finlay, G. J.; Baguley, B. C; Wilson, W. R. Anal. Biochem., 1984, 139, 272-277]. The IC50 was calculated as the drug concentration providing 50% inhibition of growth relative to the controls.
The compound was incubated with UV4 cells for 18 hours in 96-well plates under aerobic conditions. The UV4 cell line is a mutant Chinese hamster ovary fibroblast lines derived from the wild-type AA8. It is a UV complementation group 1 mutant, with a defect in the incision step of excision repair [Thompson, L. H. et al Proc. Natl. Acad. Sci (USA), 1980, 78, 3734; Thompson, L. H.; Carrono, A. V. In Cellular responses to DNA Damage, UCLA Symposium on Molecular and Cellular Biology, New Series, Vol. 11 (Freidberg, E. C.; Bridges, B. R.; Eds), Alan R. Liss: New York, 1983: p 125], and is highly sensitive to agents which form bulky DNA monoadducts or crosslinks [Hoy, C.A . et al Cancer Res., 1985, 45, 1737-1747].
The experiment was repeated but in addition purified E. coli nitroreductase enzyme (1 μg/mL) and NADH (1 mM, as cofactor) was added during the entire time of the incubation. […] This represents a 26-fold activation by the enzyme.

AA8 cells = test: Growth inhibition (cytotoxicity) in AA8 cells, 18 h drug exposure, methylene blue staining; type: cell-based, Chinese hamster; conditions: Cricetulus griseus, CHO-AA8, 18 h exposure then 78 h growth, 50% inhibition of growth relative to controls
Experimental: as §1

human tumours = conditions: background statement; cited from earlier work
[3] = background statement, test system not given; cited from earlier work

Work on `COc1cc2cc(C(=O)N3CC(CCl)c4ccc(NC(=O)OCc5ccc([N+](=O)[O-])cc5)cc43)[nH]c2c(OC)c1OC` (stereo not shown) [Example 3, 3-(Chloromethyl)-6-[(4"-nitrobenzyloxycarbonyl)amino]-1-[(5',6',7'-trimethoxyindol-2'-yl)carbonyl]indoline] yielded an IC50 (UV4 cells [1]) of 19.6 µM, an IC50 (UV4 cells [2]; Cricetulus griseus, aerobic conditions, no enzyme (Example 10), read-out: IC50 in UV4 cells in the absence of E. coli nitroreductase) of 11900 nM and an IC50 (UV4 cells [2]; Cricetulus griseus, aerobic, purified E. coli nitroreductase 1 μg/mL and NADH 1 mM during the entire incubation, read-out: IC50 in UV4 cells in the presence of E. coli nitroreductase) of 460 nM. The “fold activation by the enzyme” value (UV4 cells [2]) was 26 fold and the IC50 (AA8 cells) was 23 µM.

For `COc1cc2cc(C(=O)N3CC(CCl)c4ccc(N)cc43)[nH]c2c(OC)c1OC` (stereo not shown) [Example 1, 6-Amino-3-(chloromethyl)-1-[(5',6',7'-trimethoxyindol-2'-yl)carbonyl]indoline], the IC50 (UV4 cells [1]) was 0.059 µM and the IC50 (AA8 cells) was 0.32 µM.

In the case of `COC(=O)c1c(C)[nH]c2c(OC(=O)N3CCN(C)CC3)cc3c(c12)[C@H](CBr)CN3C(=O)c1cc2cc(OC)c(OC)c(OC)c2[nH]1` [KW-2189], the “anticancer activity against a range of human tumours” value (human tumours) is listed as “show anticancer activity against a range of human tumours”.

For `CCN(CC)c1ccc2cc(C(=O)Nc3ccc4[nH]c(C(=O)N5C[C@@H](CCl)c6c5cc(OC(=O)Nc5ccccc5)c5[nH]cc(C)c65)cc4c3)oc2c1` [carzelesin], the “anticancer activity against a range of human tumours” value (human tumours) is listed as “show anticancer activity against a range of human tumours”.

In the case of `COc1c(O)c2c(c3cc(C(=O)N4CCc5c4c(O)c(OC)c4[nH]c(C(=O)N6CC7CC78C6=CC(=O)c6[nH]cc(C)c68)cc54)[nH]c13)CCN2C(N)=O` (stereo not shown) [CC-1065], the IC50 [3] is given as “low pM range”.

With `COc1cc2cc(C(=O)N3CC(CCl)c4ccc([N+](=O)[O-])cc43)[nH]c2c(OC)c1OC` (stereo not shown) [example 1(h), 3-(Chloromethyl)-6-nitro-1-[(5',6',7'-trimethoxyindol-2'-yl)carbonyl]indoline] the IC50 (UV4 cells [2]; aerobic conditions, no enzyme (Example 10), read-out: IC50 in UV4 cells in the absence of E. coli nitroreductase) was 2340 nM, the IC50 (UV4 cells [2]; aerobic, purified E. coli nitroreductase 1 μg/mL and NADH 1 mM during the entire incubation, read-out: IC50 in UV4 cells in the presence of E. coli nitroreductase) was 6 nM and the “fold activation by the enzyme” value (UV4 cells [2]) was 400 fold.
